What all share (type): cell-based
Assay [1] deals with Streptococcus pneumoniae IMC B-1229 (PSSP). Description: Antimicrobial activity test (MIC), clinical isolate IMC B-1229. As for the experimental part: (§1) Using Streptococcus pneumoniae that include clinical isolates of PRSP, the antimicrobial activity of each of the prepared anti-PRSP agents was measured in accordance with the “determination method of minimum inhibitory concentration of drug against bacteria” of Japanese Society of Chemotherapy (for re-revised version, see Chemotherapy 29; 76, 1981).
(§2) 11 test strains of Streptococcus pneumoniae including IMC B-0919 are all clinical isolates, of which 2 strains, IMC B-0921 and IMC B-1229, are classified into penicillin susceptible Streptococcus pneumoniae (PSSP) and the remaining 9 strains are classified into penicillin-resistant Streptococcus pneumoniae (PRSP) (according to NCCLS standards).

The subject of assay [2] is Streptococcus pneumoniae IMC B-1233 (PRSP). Description: Antimicrobial activity test (MIC), clinical isolate IMC B-1233. As for the experimental part:
as §1, §2

Assay [3] concerns Streptococcus pneumoniae IMC B-0922 (PRSP). Description: Antimicrobial activity test (MIC), clinical isolate IMC B-0922. As for the experimental part: as §1, §2
Assay [4] deals with Streptococcus pneumoniae IMC B-1234 (PRSP). Description: Antimicrobial activity test (MIC), clinical isolate IMC B-1234. As for the experimental part:
as §1, §2

The test system of assay [5] is Streptococcus pneumoniae IMC B-0919 (PRSP). Description: Antimicrobial activity test (MIC), clinical isolate IMC B-0919. As for the experimental part:
as §1, §2

Assay [6] deals with Streptococcus pneumoniae IMC B-1232 (PRSP). In words: Antimicrobial activity test (MIC), clinical isolate IMC B-1232. As for the experimental part:
as §1, §2

In assay [7] the test system is Streptococcus pneumoniae IMC B-0920 (PRSP). In words: Antimicrobial activity test (MIC), clinical isolate IMC B-0920. As for the experimental part: as §1, §2
In assay [8] the test system is Streptococcus pneumoniae IMC B-0921 (PSSP). In words: Antimicrobial activity test (MIC), clinical isolate IMC B-0921. As for the experimental part:
as §1, §2

For assay [9], the system named is Streptococcus pneumoniae IMC B-1235 (PRSP). In words: Antimicrobial activity test (MIC), clinical isolate IMC B-1235. The procedure:
as §1, §2

Assay [10] relates to Streptococcus pneumoniae IMC B-1236 (PRSP). In words: Antimicrobial activity test (MIC), clinical isolate IMC B-1236. As for the experimental part: as §1, §2
For assay [11], the system named is Streptococcus pneumoniae IMC B-1231 (PRSP). Description: Antimicrobial activity test (MIC), clinical isolate IMC B-1231. The procedure: as §1, §2
Where [12] appears, read: PSSP clinical isolate IMC B-1229.
Where [13] appears, read: PRSP clinical isolate IMC B-1233.
[14] abbreviates: PRSP clinical isolate IMC B-0922.
Setting [15] is: PRSP clinical isolate IMC B-1234.
Where [16] appears, read: PRSP clinical isolate IMC B-0919.
Setting [17] is: PRSP clinical isolate IMC B-1232.
Setting [18] is: PRSP clinical isolate IMC B-0920.
[19] abbreviates: PSSP clinical isolate IMC B-0921.
The mark [20] stands for this setting: PRSP clinical isolate IMC B-1235.
Where [21] appears, read: PRSP clinical isolate IMC B-1236.
Where [22] appears, read: PRSP clinical isolate IMC B-1231.

Here are results for 6 compounds from US8053418B2, “Anti-penicillin resistant pneumococci agent and novel 16-membered macrolide derivative” (Microbial Chemistry Research Foundation, priority 2005, dated 2011).

As a reminder, the MIC is the smallest concentration in the dilution series that meets the test's criterion for growth inhibition.

Each structure is given as a SMILES string. In brackets after ≈: the same amount, converted by molar mass. Like-named read-outs stand apart in the source and are kept apart here.

Consider `CCC1OC(=O)CCC(C)C(OC2OC(C)CC(N(C)C)C2O)C(CC=O)CC(C)C(=O)C=CC(C)=CC1CN(C)CCc1ccc(OC)c(OC)c1` (stereo not drawn) [MKT-6104], for which the MIC in [1] (setting [12]) was determined as 1.56 µg/mL (≈ 2.1 µM); in assay [2] (setting [13]), 1.56 µg/mL (≈ 2.1 µM); in [3] (setting [14]), 0.78 µg/mL (≈ 1.05 µM); in assay [4] (setting [15]), 1.56 µg/mL (≈ 2.1 µM); in assay [5] (setting [16]), 1.56 µg/mL (≈ 2.1 µM); in assay [6] (setting [17]), 1.56 µg/mL (≈ 2.1 µM). In addition, the MIC in assay [7] (setting [18]) was 0.78 µg/mL (≈ 1.05 µM); in assay [8] (setting [19]) it was 0.78 µg/mL (≈ 1.05 µM); in assay [9] (setting [20]), 25 µg/mL (≈ 33.6 µM); in assay [10] (setting [21]) it was 25 µg/mL (≈ 33.6 µM); in [11] (setting [22]), 50 µg/mL (≈ 67.3 µM).
`CCC1OC(=O)CCC(C)C(OC2OC(C)CC(N(C)C)C2O)C(CC=O)CC(C)C(=O)C=CC(C)=CC1CCl` (stereo not drawn) [MKT-3007]: the minimal inhibitory concentration (MIC) was 0.20 µg/mL (≈ 0.342 µM) in assay [1] (Streptococcus pneumoniae IMC B-1229, PSSP); 0.20 µg/mL (≈ 0.342 µM) in [2] (Streptococcus pneumoniae IMC B-1233, PRSP); 0.20 µg/mL (≈ 0.342 µM) in [3] (Streptococcus pneumoniae IMC B-0922, PRSP); 0.20 µg/mL (≈ 0.342 µM) in [4] (Streptococcus pneumoniae IMC B-1234, PRSP); 0.20 µg/mL (≈ 0.342 µM) in assay [5] (Streptococcus pneumoniae IMC B-0919, PRSP); 0.20 µg/mL (≈ 0.342 µM) in assay [6] (Streptococcus pneumoniae IMC B-1232, PRSP). Further, the MIC stood at 0.20 µg/mL (≈ 0.342 µM) in assay [7] (Streptococcus pneumoniae IMC B-0920, PRSP); 0.10 µg/mL (≈ 0.171 µM) in assay [8] (Streptococcus pneumoniae IMC B-0921, PSSP); 50 µg/mL (≈ 85.6 µM) in assay [9] (Streptococcus pneumoniae IMC B-1235, PRSP); 50 µg/mL (≈ 85.6 µM) in assay [10] (Streptococcus pneumoniae IMC B-1236, PRSP); 25 µg/mL (≈ 42.8 µM) in assay [11] (Streptococcus pneumoniae IMC B-1231, PRSP).
For the compound `CC[C@H]1OC(=O)[C@H](C)[C@@H](O[C@H]2C[C@@](C)(OC)[C@@H](O)[C@H](C)O2)[C@H](C)[C@@H](O[C@@H]2O[C@H](C)C[C@H](N(C)C)[C@H]2O)[C@](C)(OC)C[C@@H](C)C(=O)[C@H](C)[C@@H](O)[C@]1(C)O` [clarithromycin, reference compound], the MIC amounted to 0.1 µg/mL (≈ 0.134 µM) in [1] (Streptococcus pneumoniae IMC B-1229, PSSP, read-out: MIC); 0.05 µg/mL (≈ 0.0668 µM) in [2] (Streptococcus pneumoniae IMC B-1233, PRSP, read-out: MIC); 0.2 µg/mL (≈ 0.267 µM) in assay [3] (Streptococcus pneumoniae IMC B-0922, PRSP, read-out: MIC); 0.05 µg/mL (≈ 0.0668 µM) in assay [4] (Streptococcus pneumoniae IMC B-1234, PRSP, read-out: MIC); 0.2 µg/mL (≈ 0.267 µM) in assay [5] (Streptococcus pneumoniae IMC B-0919, PRSP, read-out: MIC); 0.39 µg/mL (≈ 0.521 µM) in assay [6] (Streptococcus pneumoniae IMC B-1232, PRSP, read-out: MIC). The MIC in [7] (Streptococcus pneumoniae IMC B-0920, PRSP, read-out: MIC) is 0.2 µg/mL (≈ 0.267 µM); in assay [8] (Streptococcus pneumoniae IMC B-0921, PSSP, read-out: MIC), 0.1 µg/mL (≈ 0.134 µM); in [9] (Streptococcus pneumoniae IMC B-1235, PRSP, read-out: MIC), > 100 µg/mL; in assay [10] (Streptococcus pneumoniae IMC B-1236, PRSP, read-out: MIC), > 100 µg/mL; in assay [11] (Streptococcus pneumoniae IMC B-1231, PRSP, read-out: MIC) it was 25 µg/mL (≈ 33.4 µM).
On to `CCC1OC(=O)CCC(C)C(OC2OC(C)CC(N(C)C)C2O)C(CC=O)CC(C)C(=O)C=CC(C)=CC1CI` (stereo not drawn) [MKT-3001], for which the minimum inhibitory concentration (MIC) in [1] (setting [12]) is 0.39 µg/mL (≈ 0.577 µM); in assay [2] (setting [13]), 0.2 µg/mL (≈ 0.296 µM); in [3] (setting [14]), 0.2 µg/mL (≈ 0.296 µM); in assay [4] (setting [15]), 0.2 µg/mL (≈ 0.296 µM); in [5] (setting [16]), 0.39 µg/mL (≈ 0.577 µM); in assay [6] (setting [17]), 0.1 µg/mL (≈ 0.148 µM). Further, the minimal inhibitory concentration (MIC) in assay [7] (setting [18]) was 0.2 µg/mL (≈ 0.296 µM); in assay [8] (setting [19]), 0.2 µg/mL (≈ 0.296 µM); in assay [9] (setting [20]), 50 µg/mL (≈ 74 µM); in assay [10] (setting [21]), 25 µg/mL (≈ 37 µM); in [11] (setting [22]), >50 µg/mL.
For `CCC1OC(=O)CCC(C)C(OC2OC(C)CC(N(C)C)C2O)C(CC=O)CC(C)C(=O)C=CC(C)=CC1CNC(C)=O` (stereo not drawn) [MKT-3201], the MIC turned out to be 0.2 µg/mL (≈ 0.33 µM) in [1] (setting [12]); 0.39 µg/mL (≈ 0.643 µM) in assay [2] (setting [13]); 0.39 µg/mL (≈ 0.643 µM) in assay [3] (setting [14]); 0.39 µg/mL (≈ 0.643 µM) in [4] (setting [15]); 0.78 µg/mL (≈ 1.29 µM) in assay [5] (setting [16]); 0.39 µg/mL (≈ 0.643 µM) in assay [6] (setting [17]). Also, the MIC in [7] (setting [18]) is 0.78 µg/mL (≈ 1.29 µM); in assay [8] (setting [19]) it was 0.2 µg/mL (≈ 0.33 µM); in assay [9] (setting [20]), 12.5 µg/mL (≈ 20.6 µM); in assay [10] (setting [21]), 50 µg/mL (≈ 82.4 µM); in assay [11] (setting [22]) it was 1.56 µg/mL (≈ 2.57 µM).
With `CCC1OC(=O)CCC(C)C(OC2OC(C)CC(N(C)C)C2O)C(CC=O)CC(C)C(=O)C=CC(C)=CC1CN=[N+]=[N-]` (stereo not drawn) [MKT-3004], the MIC worked out at 0.1 µg/mL (≈ 0.169 µM) in assay [1] (setting [12]); 0.2 µg/mL (≈ 0.339 µM) in assay [2] (setting [13]); 0.1 µg/mL (≈ 0.169 µM) in [3] (setting [14]); 0.2 µg/mL (≈ 0.339 µM) in [4] (setting [15]); 0.2 µg/mL (≈ 0.339 µM) in assay [5] (setting [16]); 0.2 µg/mL (≈ 0.339 µM) in assay [6] (setting [17]). The MIC in assay [7] (setting [18]) turned out to be 0.1 µg/mL (≈ 0.169 µM); in assay [8] (setting [19]) it was 0.1 µg/mL (≈ 0.169 µM); in [9] (setting [20]), 50 µg/mL (≈ 84.6 µM); in assay [10] (setting [21]) it was 50 µg/mL (≈ 84.6 µM); in assay [11] (setting [22]), 25 µg/mL (≈ 42.3 µM).
